The values below come from patent US20150105377A1, “Methods and Compositions for RAF Kinase Mediated Diseases” (ARIAD Pharmaceuticals, Inc., priority 2012, published 2015).

Test [1] concerns the target T1, C-RAF (Homo sapiens, UniProt P04049).
T1 construct: purchased Reaction Biology Corporation (Malvern, Pa.), contract assay service
The test is described as follows: Kinase inhibition assay (Reaction Biology Corporation). In kind it is biochemical. The settings on record: 10 μM ATP, 10-point curve.

The subject of test [2] is MEK or ERK1/2 phosphorylation in A375 BRAF V600E mutant melanoma cancer cells. The test is described as follows: Immunoblot analysis of BRAF signaling. The class given is cell-based. The settings on record: FIG. 1B. The procedure:
(§1) Cells were lysed in SDS lysis buffer (0.06 M Tris-HCL. 1% SDS and 10% glycerol) and protein concentration was determined using a BCA Protein assay (Thermo Scientific). Cellular lysates ([…]) were resolved by electrophoresis and transferred to nitrocellulose membranes using NuPage Novex reagents (Invitrogen). Membranes were immunoblotted with the indicated antibodies (Cell Signaling Technology) and then exposed to Supersignal ELISA femto maximum sensitivity substrate (Thermo Scientific) to generate a chemiluminescent signal.

The test system of test [3] is MEK or ERK1/2 phosphorylation in HT-29 BRAF V600E mutant colorectal cancer cells. The test is described as follows: Immunoblot analysis of BRAF signaling. In kind it is cell-based. The settings on record: HT-29 cells, FIG. 4B. The method, then: as §1
(In general: Immunoblotting shows a protein as a band on a membrane.)

The subject of test [4] is MEK or ERK1/2 phosphorylation in SH-4 BRAF V600E mutant melanoma cancer cells. The test can be described thus: Immunoblot analysis of BRAF signaling. The class given is cell-based. To be noted: SH-4 cells, FIG. 2B. The method, then: as §1
For test [5], the system named is C32 BRAF V600E het melanoma cell line. The test can be described thus: Cell growth assay (automated cell line screening, Ricerca Biosciences). In kind it is cell-based. The settings on record: Homo sapiens, read-out: Ponatinib GI50 (nM), tested by Ricerca Biosciences. The procedure:
(§2) Cell growth was assessed using the Cell Titer 96 Aqueous One Solution Cell Proliferation Assay (Promega) and absorbance was measured using a Wallac Victor microplate reader (PerkinElmer). To differentiate between a cytostatic and cytotoxic drug effect, the concentration that causes 50% growth inhibition (GI50) was determined by correcting for the cell count at time zero (time of treatment) and plotting data as percent growth relative to vehicle-treated cells using XLfit version 5.2.0 for Microsoft Excel. Data are shown as mean from 3 independent experiments performed in triplicate.
(§3) Cell growth assays were also performed as part of an automated cell line screening assay (Ricerca Biosciences, LLC, Bothell, Wash., USA). Experimental procedures are similar to those described above.

Test [6] deals with CHL-1 BRAF wt melanoma cell line. The description is as above. To be noted: Homo sapiens, read-out: Ponatinib GI50 (nM), CHL-1, Melanoma, tested by Ricerca Biosciences. The class given is cell-based. The procedure: as §2, §3
Test [7] has as its system SH-4 BRAF V600E melanoma cell line. The test is described as follows: Cell growth assay. The settings on record: Homo sapiens, read-out: Ponatinib GI50 (nM), SH-4, Melanoma, 72 hours. The class given is cell-based. The procedure: as §2
Test [8] concerns HT-29 BRAF V600E colorectal cancer cell line. The test is described as follows: Cell growth assay. To be noted: Homo sapiens, read-out: Ponatinib GI50 (nM), HT-29, Colorectal, 72 hours. In kind it is cell-based. The procedure: as §2
The subject of test [9] is A375 BRAF V600E melanoma cell line. The test is described as follows: Cell growth assay. The class given is cell-based. The settings on record: Homo sapiens, A-375, read-out: Ponatinib GI50 (nM), 72 hours. The method, then: as §2
Test [10] concerns SK-MEL-24 BRAF V600E melanoma cell line. The test can be described thus: Cell growth assay. To be noted: Homo sapiens, read-out: Ponatinib GI50 (nM), SK-MEL-24, Melanoma, 72 hours. In kind it is cell-based. The procedure:
as §2

In general, IC50 refers to the concentration at which inhibition is half-maximal. The term GI50 denotes the concentration that inhibits growth by half.

Each structure is given as a SMILES string.

T1 sequence (P04049 whole entry): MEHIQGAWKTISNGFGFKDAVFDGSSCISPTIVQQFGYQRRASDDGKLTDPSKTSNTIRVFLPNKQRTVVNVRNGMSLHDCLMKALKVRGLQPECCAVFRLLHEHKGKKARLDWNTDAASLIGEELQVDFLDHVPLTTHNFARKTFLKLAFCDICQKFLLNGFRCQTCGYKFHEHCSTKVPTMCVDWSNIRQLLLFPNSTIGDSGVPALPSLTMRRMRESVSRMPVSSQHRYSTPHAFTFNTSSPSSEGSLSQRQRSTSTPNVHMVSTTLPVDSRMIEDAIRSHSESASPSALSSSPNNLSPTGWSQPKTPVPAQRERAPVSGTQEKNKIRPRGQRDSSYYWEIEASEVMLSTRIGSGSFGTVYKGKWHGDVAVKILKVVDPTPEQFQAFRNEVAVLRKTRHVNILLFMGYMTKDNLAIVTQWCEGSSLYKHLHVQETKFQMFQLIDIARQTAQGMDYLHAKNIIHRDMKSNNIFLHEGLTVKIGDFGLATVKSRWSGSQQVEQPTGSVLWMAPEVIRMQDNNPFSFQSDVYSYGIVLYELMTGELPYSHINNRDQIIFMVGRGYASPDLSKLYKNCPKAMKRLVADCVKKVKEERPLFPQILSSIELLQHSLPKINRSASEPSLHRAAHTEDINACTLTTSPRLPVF

In turn, `Cc1ccc(C(=O)Nc2cc(N3CCOCC3)cc(C(F)(F)F)c2)cc1C#Cc1cnc2cccnn12` returned an IC50 in test [1] (Table 2) of 17.2 nM. The same measure, in the same setting: to `CN1CCN(Cc2ccc(NC(=O)c3cccc(C#Cc4cnc5cnccn45)c3)cc2Cl)CC1` belongs 3.96 nM; to `Cc1ccc(C(=O)Nc2cc(N(C)CCO)cc(C(F)(F)F)c2)cc1C#Cc1cnc2cccnn12`, 14.4 nM; to `Cc1cc(C#Cc2cnc3cccnn23)cc(C(=O)Nc2cccc(C(F)(F)F)c2)c1`, 2940 nM. The same measure, in the same setting: next, `Cc1ccc(C(=O)Nc2ccc(C(F)(F)F)cc2)cc1C#Cc1cnc2cccnn12`: 4.39 nM. Molecule `Cc1ccc(NC(=O)c2ccc(CN3CCN(C)CC3)c(C(F)(F)F)c2)cc1C#Cc1cnc2cccnn12` [Example 15, N-(3-(Imidazo[1,2-b]pyridazin-3-ylethynyl)-4-methylphenyl)-4-((4-methylpiperazin-1-yl)methyl)-3-(trifluoromethyl)benzamide] gave an IC50 in test [1] (Table 1) of 12.2 nM. In other words, the double-digit nanomolar range. On to `Cc1ccc(C(=O)Nc2ccc(CC(=N)N)c(C(F)(F)F)c2)cc1C#Cc1cnc2cccnn12`, for which, in test [1] (Table 2), it took 3.91 nM to reach half-maximal inhibition (IC50). Still for that read-out and setting: to `Cc1ccc(C(=O)Nc2ccc(C#N)c(C(F)(F)F)c2)cc1C#Cc1cnc2ccccn12` belongs 57.3 nM; to `Cc1ccc(C(=O)Nc2cc(C(C)(C)C)on2)cc1C#Cc1cnc2cccnn12`, 4.27 nM. Same read-out and setting: next, `Cc1ccc(C(=O)Nc2cc(C(F)(F)F)ccc2NCCN2CCCC2)cc1C#Cc1cnc2ccccn12`: 24.3 nM. Still for that read-out and setting: to `Cc1ccc(C(=O)Nc2cc(-n3ccnc3)cc(C(F)(F)F)c2)cc1C#Cc1cnc2c(NC(N)=O)cccn12` belongs 12.7 nM; to `CN1CCN(Cc2ccc(NC(=O)c3cccc(C#Cc4cnc5ccccn45)c3)cc2C(F)(F)F)CC1`, 26.7 nM; to `Cc1ccc(C(=O)Nc2cccc(C(F)(F)F)c2)cc1C#Cc1cnc2cccnn12`, 1.45 nM.

In the case of `CNC(=O)CNc1ccc(NC(=O)c2ccc(C)c(C#Cc3cnc4ccccn34)c2)cc1C(F)(F)F`, 29.5 nM corresponded to half-maximal inhibition in test [1] (Table 2) (IC50). Same read-out and setting: next, `CC(C)N1CCN(Cc2ccc(NC(=O)c3cncc(C#Cc4cnc5cnccn45)c3)cc2C(F)(F)F)CC1`: 14.4 nM.

In turn, `Cc1ccc(C(=O)Nc2cc(-c3cncnc3)cc(C(F)(F)F)c2)cc1C#Cc1cnc2cccnn12` returned an IC50 in test [1] (Table 2) of 8.5 nM. This IC50 is about 1.7-fold lower than that of the molecule before. The same measure, in the same setting: to `CC(=O)Nc1cccn2c(C#Cc3cc(C(=O)Nc4cccc(C(F)(F)F)c4)ccc3C)cnc12` belongs 7.3 nM; to `CN1CCN(Cc2ccc(NC(=O)c3ccc(F)c(C#Cc4cnc5ccccn45)c3)cc2C(F)(F)F)CC1`, 51.7 nM; to `CC(=O)Nc1cccn2c(C#Cc3cc(NC(=O)Nc4cc(C(F)(F)F)ccn4)ccc3C)cnc12`, 5.09 nM. In the case of `Cc1ccc(C(=O)Nc2ccc(Cl)cc2)cc1C#Cc1cnc2cccnn12`, it took 10.7 nM to reach half-maximal inhibition in test [1] (Table 2) (IC50). Against the preceding molecule, the IC50 is about 2.1-fold higher. In test [1] (Table 2), `Cc1ccc(F)c(NC(=O)c2ccc(C)c(C#Cc3cnc4cccnn34)c2)c1` had an IC50 of 2.76 nM. Against the preceding molecule, the IC50 is about 3.9-fold lower. On to `Cc1ccc(C(=O)Nc2ccc(CN3CCCC3)c(C(F)(F)F)c2)cc1C#Cc1cnc2ccccn12`, for which, in test [1] (Table 2), half-maximal inhibition (IC50) required 60.2 nM. As for `Cc1ccc(-c2nc3cc(C(F)(F)F)ccc3[nH]2)cc1C#Cc1cnc2cccnn12`, the concentration for half-maximal inhibition (IC50) in test [1] (Table 2) turned out to be 5.8 nM. Take `Cc1ccc(NC(=O)c2ccc3ccn(C)c3c2)cc1C#Cc1cnc2cccnn12`: in test [1] (Table 2), inhibition was half-maximal at 3.12 nM (IC50). Against the preceding molecule, the IC50 is about 1.9-fold lower. With `CN1CCN(Cc2ccc(NC(=O)c3cncc(C#Cc4cnc5cccnn45)c3)cc2Cl)CC1`, the IC50 in test [1] (Table 2) turned out to be 25.6 nM. The molecule `Cc1ccc(C(=O)Nc2cc(C(F)(F)F)ccn2)cc1C#Cc1cnc2c(N)cccn12` displayed an IC50 in [1] (Table 2) of 4.78 nM. Compared with the last molecule, the IC50 is about 5.4-fold lower.

In turn, `Cc1ccc(C(=O)Nc2ccc(CN3CCN(C)CC3)c(C(F)(F)F)c2)cc1C#Cc1cnc2ccccn12` [Example 8, 3-(Imidazo[1,2-a]pyridin-3-ylethynyl)-4-methyl-N-(4-((4-methylpiperazin-1-yl)methyl)-3-(trifluoromethyl)phenyl)benzamide] had an IC50 in [1] (Table 1) of 26 nM.

For the molecule `O=C(Nc1cccc(C(F)(F)F)c1)c1cncc(C#Cc2cnc3cccnn23)c1`, the IC50 in test [1] (Table 2) amounted to 2.07 nM. In the case of `Cc1ccc(C(=O)Nc2ccc(CN3CCOCC3)c(C(F)(F)F)c2)cc1C#Cc1cnc2cnccn12`, it took 5.43 nM to reach half-maximal inhibition in test [1] (Table 2) (IC50). The molecule `Cc1ccc(C(=O)Nc2cc(CN3CCOCC3)cc(C(F)(F)F)c2)cc1C#Cc1cnc2ccccn12` gave an IC50 in [1] (Table 2) of 83.1 nM. This IC50 is about 15-fold higher than that of the molecule before. The same measure, in the same setting: to `Cc1ccc(C(=O)Nc2cc(-n3ccnc3)cc(C(F)(F)F)c2)cc1C#Cc1cnc2c(N)cccn12` belongs 51.1 nM. Molecule `Cc1ccc(C(=O)Nc2ccc(CN3CCN(C)CC3)c(C(F)(F)F)c2)cc1C#Cc1cnc2cnccn12` [Example 2, 3-(Imidazo[1,2-a]pyrazin-3-ylethynyl)-4-methyl-N-(4-((4-methylpiperazin-1-yl)methyl)-3-(trifluoromethyl)phenyl)benzamide] came in with an IC50 in test [1] (Table 1) of 2.13 nM. This lies in the single-digit nanomolar range. As for `Cc1ccc(C(=O)Nc2cc(-n3cnc(CN4CCCC4)c3)cc(C(F)(F)F)c2)cc1C#Cc1cnc2cccnn12`, in test [1] (Table 2), the IC50 amounted to 9.19 nM. That is a single-digit nanomolar value. The same measure, in the same setting: to `Cc1ccc(C(=O)Nc2cc(-n3cnc(CN(C)C)c3)cc(C(F)(F)F)c2)cc1C#Cc1cnc2cccnn12` belongs 3.84 nM. On the same count and under the same terms, to `Cc1ccc(C(=O)Nc2cc(-n3ccnc3CN(C)C)cc(C(F)(F)F)c2)cc1C#Cc1cnc2cnccn12` belongs 9.22 nM; to `Cc1ccc(C(=O)Nc2cc(-n3cnc(C#N)c3)cc(C(F)(F)F)c2)cc1C#Cc1cnc2ccccn12`, 998 nM.

With `Cc1ccc(C(=O)Nc2ccc(CN3CCN(C)CC3)c(C(F)(F)F)c2)cc1C#Cc1cnc2cccnn12` [Ponatinib, 3-(Imidazo[1,2-b]pyridazin-3-ylethynyl)-4-methyl-N-(4-((4-methylpiperazin-1-yl)methyl)-3-(trifluoromethyl)phenyl)benzamide], the “MEK or ERK1/2 phosphorylation” value in [2], in test [3] and in test [4] was “inhibit” each time. The GI50 in [5] is 107 nM; in test [6], 88.5 nM; in [7], 85.6 nM; in [8], 354 nM; in test [9], 372 nM; in test [10] it was 767 nM. Consider `CC(=O)Nc1cccn2c(C#Cc3cc(C(=O)Nc4cc(C(F)(F)F)ccn4)ccc3C)cnc12` [Example 10, 3-((8-Acetamidoimidazo[1,2-a]pyridin-3-yl)ethynyl)-4-methyl-N-(4-(trifluoromethyl)pyridin-2-yl)benzamide], for which 2.42 nM corresponded to half-maximal inhibition in [1] (Table 1) (IC50). Regarding `Cc1cnc(NC(=O)c2ccc(C)c(C#Cc3cnc4c(NC(N)=O)cccn34)c2)s1`, in test [1] (Table 2), the IC50 is 2.49 nM.
